Data taken from patent publication US12053467B2, “Method of treating fibrosis” (NovMeta Pharma Co., Ltd., priority 2020, dated 2024).

Experiments:
[1] = system: bleomycin (BLM)-induced pulmonary fibrosis; experiment: Bleomycin-induced pulmonary fibrosis mouse model, overall effect; format: in vivo, ICR mice; conditions: 5, 25, 50 and 100 mg/kg/day oral, 4 weeks; compared to BLM alone group; FIGS. 1-7
Protocol: (§1) Seven-week-old male ICR mice from Koatech Co. Ltd (Gyeonggi-do, Korea). All animal experiments were approved by the Ethics Review Committee of the Advanced Bio Convergence Center, Republic of Korea. Mice were housed in specific pathogen-free conditions with a 12 hr light-dark cycle and had free access to water and food. Body weight and caloric intake were monitored throughout the experiments. The mice were housed in single cage and food intake was calculated of each animals in the cage. 5 or 25 or 50 or 100 mg/kg/day CHP monohydrate, 5 mg/kg/day CHP+10 mg/kg/day Zn, or PBS (vehicle control), was orally administered daily for 4 weeks. At the conclusion of the in vivo experiment, the mice were sacrificed and tissues were collected and weighed. Tissue samples were stored at −80° C. until analysis. Mice maintained under anesthesia with isoflurane were intravenously administered bleomycin 75 mg/kg in saline. The first administration of CHP hydrate or CHP hydrate+Zn was performed 30 min after bleomycin administration.

[2] = pKa of CHP hydrate material; format: physicochemical; conditions: characterising feature (b)
[3] = system: α-smooth muscle actin (aSMA); experiment: αSMA mRNA (real-time PCR) in bleomycin-induced pulmonary fibrosis mice; format: in vivo, ICR mice; conditions: lung, 5, 25, 50 and 100 mg/kg/day oral, daily for 4 weeks, vs BLM alone (set 1.0)
Protocol: as §1, with “analysis.” for “analysis. Mice maintained under anesthesia with isoflurane were intravenously administered bleomycin 75 mg/kg in saline. The first administration of CHP hydrate or CHP hydrate+Zn was performed 30 min after bleomycin administration.”
(§2) Mice maintained under anesthesia with isoflurane were intravenously administered bleomycin 75 mg/kg in saline. […]
(§3) Total RNA was prepared by an RNeasy Mini kit (QIAGEN) according to the manufacturer's instructions. RNA integrity was assessed by an automated microfluidics-based system (Bioanalyzer 2100, Agilent, Palo Alto, CA, USA). […] A melt curve was produced to confirm a single gene-specific peak and detect primer/dimer formation by heating the samples from 65 to 95° C. in 0.5° C. increments with a dwell time at each temperature of 10 sec while continuously monitoring fluorescence. […]

[4] = system: lung hydroxyproline (collagen deposition); experiment: Hydroxyproline assay of lung in bleomycin-induced IPF mice; format: in vivo, ICR mice; conditions: 5, 25, 50 and 100 mg/kg/day oral, daily for 4 weeks, vs BLM alone
Protocol: as §1, with “analysis.” for “analysis. Mice maintained under anesthesia with isoflurane were intravenously administered bleomycin 75 mg/kg in saline. The first administration of CHP hydrate or CHP hydrate+Zn was performed 30 min after bleomycin administration.”
(§4) Mice maintained under anesthesia with isoflurane were intravenously administered bleomycin 75 mg/kg in saline. The first administration of CHP hydrate or CHP hydrate+Zn was performed 30 min after bleomycin administration.
Collagen deposition was determined by measuring the total hydroxyproline (HYP) content, which was measured by a HYP assay kit according to the provided manufacturer's protocol. […] After neutralization with hydrochloric acid, the hydrolyzation products were diluted with distilled water, and assessed at 550 nm and expressed as ug/10 mg.

Collagen 1 (Col1) = experiment: Col1 mRNA (real-time PCR) in bleomycin-induced pulmonary fibrosis mice; format: in vivo, ICR mice; conditions: lung, 5, 25, 50 and 100 mg/kg/day oral, daily for 4 weeks, vs BLM alone (set 1.0)
Protocol: as §1, with “analysis.” for “analysis. Mice maintained under anesthesia with isoflurane were intravenously administered bleomycin 75 mg/kg in saline. The first administration of CHP hydrate or CHP hydrate+Zn was performed 30 min after bleomycin administration.”
as §2, §3

Collagen 3 (Col3) = experiment: Col3 mRNA (real-time PCR) in bleomycin-induced pulmonary fibrosis mice; format: in vivo, ICR mice; conditions: lung, 5, 25, 50 and 100 mg/kg/day oral, daily for 4 weeks, vs BLM alone (set 1.0)
Protocol: as §1, with “analysis.” for “analysis. Mice maintained under anesthesia with isoflurane were intravenously administered bleomycin 75 mg/kg in saline. The first administration of CHP hydrate or CHP hydrate+Zn was performed 30 min after bleomycin administration.”
as §2, §3

Collagen 4 (Col4) = experiment: Col4 mRNA (real-time PCR) in bleomycin-induced pulmonary fibrosis mice; format: in vivo, ICR mice; conditions: lung, 5, 25, 50 and 100 mg/kg/day oral, daily for 4 weeks, vs BLM alone (set 1.0)
Protocol: as §1, with “analysis.” for “analysis. Mice maintained under anesthesia with isoflurane were intravenously administered bleomycin 75 mg/kg in saline. The first administration of CHP hydrate or CHP hydrate+Zn was performed 30 min after bleomycin administration.”
as §2, §3

fibronectin [5] = experiment: Fibronectin mRNA (real-time PCR) in bleomycin-induced pulmonary fibrosis mice; format: in vivo, ICR mice; conditions: lung; 5, 25, 50 and 100 mg/kg/day oral, daily for 4 weeks; vs BLM alone (set 1.0)
Protocol: as §1, with “analysis.” for “analysis. Mice maintained under anesthesia with isoflurane were intravenously administered bleomycin 75 mg/kg in saline. The first administration of CHP hydrate or CHP hydrate+Zn was performed 30 min after bleomycin administration.”
as §2, §3

[6] = system: transforming growth factor-β (TGF-β); experiment: TGF-β mRNA (real-time PCR) in bleomycin-induced pulmonary fibrosis mice; format: in vivo, ICR mice; conditions: lung; 5, 25, 50 and 100 mg/kg/day oral, daily for 4 weeks; vs BLM alone (set 1.0)
Protocol: as §1, with “analysis.” for “analysis. Mice maintained under anesthesia with isoflurane were intravenously administered bleomycin 75 mg/kg in saline. The first administration of CHP hydrate or CHP hydrate+Zn was performed 30 min after bleomycin administration.”
as §2, §3

fibronectin [7] = experiment: Western blot of fibronectin in bleomycin-induced pulmonary fibrosis mice; format: in vivo, ICR mice; conditions: CHP 5 mg/kg oral, daily for 4 weeks; compared to BLM group
Protocol: as §1, with “analysis.” for “analysis. Mice maintained under anesthesia with isoflurane were intravenously administered bleomycin 75 mg/kg in saline. The first administration of CHP hydrate or CHP hydrate+Zn was performed 30 min after bleomycin administration.”
as §4
20-30 μg of lysates were separated on BOLT™ 4-12% Bis-Tris Plus gels with MES running buffer and transferred to nitrocellulose membranes using TRANS-BLOT® TURBO™ Transfer System (Bio-Rad). […]

[8] = system: zinc absorption and uptake by muscle tissues and by intestinal segments; conditions: Life Sciences 70 (2001), 337-348; cited from earlier work

SMILES | inflammation and fibrosis biomarkers [1] | pKa [2] | relative αSMA mRNA expression level ([3]; hydrate) | lung hydroxyproline (HYP) content / accumulation of collagen in the lung ([4]; hydrate) | relative Col1 mRNA expression level (Collagen 1 (Col1); hydrate) | relative Col3 mRNA expression level (Collagen 3 (Col3); hydrate) | relative Col4 mRNA expression level (Collagen 4 (Col4); hydrate) | relative fibronectin mRNA expression level (fibronectin [5]) | relative TGF-β mRNA expression level [6] | fibronectin protein levels (Western blotting) (fibronectin [7]) | relative αSMA mRNA expression level [3] | zinc absorption and uptake [8] | lung hydroxyproline (HYP) content / accumulation of collagen in the lung [4] | relative Col1 mRNA expression level (Collagen 1 (Col1)) | relative Col3 mRNA expression level (Collagen 3 (Col3)) | relative Col4 mRNA expression level (Collagen 4 (Col4))
O=C1N[C@@H](Cc2cnc[nH]2)C(=O)N2CCC[C@@H]12 [CHP hydrate, cyclo(-His-Pro) hydrate] | significantly decreased | ~6.4 | dramatically reduced | significantly decreased | dramatically reduced | dramatically reduced | dramatically reduced | – | – | – | – | – | – | – | – | –
O=C1N[C@@H](Cc2cnc[nH]2)C(=O)N2CCC[C@@H]12 [CHP, Cyclo(-His-Pro)] | – | – | – | – | – | – | – | significantly reduces | significantly reduces | dramatically reduced | significantly reduces | enhanced | significantly reduces | significantly reduces | significantly reduces | significantly reduces
